According to article PMC12241633, “Irinotecan alleviates chemoresistance to anthracyclines through the inhibition of AARS1-mediated BLM lactylation and homologous recombination repair” (Signal Transduction and Targeted Therapy, 2025):

Legend:
Test in all cases: SPR (Biacore T200), multicycle kinetics, global […] Langmuir fit
Assay type in all cases: binding
BLM [1] = target: T1, BLM (Homo sapiens, UniProt P54132, K38R)
T1 construct: recombinant, pET28a-sumo in E. coli BL21(DE3); amine-coupled to CM5 chip
T1 sequence (P54132 whole entry K38R): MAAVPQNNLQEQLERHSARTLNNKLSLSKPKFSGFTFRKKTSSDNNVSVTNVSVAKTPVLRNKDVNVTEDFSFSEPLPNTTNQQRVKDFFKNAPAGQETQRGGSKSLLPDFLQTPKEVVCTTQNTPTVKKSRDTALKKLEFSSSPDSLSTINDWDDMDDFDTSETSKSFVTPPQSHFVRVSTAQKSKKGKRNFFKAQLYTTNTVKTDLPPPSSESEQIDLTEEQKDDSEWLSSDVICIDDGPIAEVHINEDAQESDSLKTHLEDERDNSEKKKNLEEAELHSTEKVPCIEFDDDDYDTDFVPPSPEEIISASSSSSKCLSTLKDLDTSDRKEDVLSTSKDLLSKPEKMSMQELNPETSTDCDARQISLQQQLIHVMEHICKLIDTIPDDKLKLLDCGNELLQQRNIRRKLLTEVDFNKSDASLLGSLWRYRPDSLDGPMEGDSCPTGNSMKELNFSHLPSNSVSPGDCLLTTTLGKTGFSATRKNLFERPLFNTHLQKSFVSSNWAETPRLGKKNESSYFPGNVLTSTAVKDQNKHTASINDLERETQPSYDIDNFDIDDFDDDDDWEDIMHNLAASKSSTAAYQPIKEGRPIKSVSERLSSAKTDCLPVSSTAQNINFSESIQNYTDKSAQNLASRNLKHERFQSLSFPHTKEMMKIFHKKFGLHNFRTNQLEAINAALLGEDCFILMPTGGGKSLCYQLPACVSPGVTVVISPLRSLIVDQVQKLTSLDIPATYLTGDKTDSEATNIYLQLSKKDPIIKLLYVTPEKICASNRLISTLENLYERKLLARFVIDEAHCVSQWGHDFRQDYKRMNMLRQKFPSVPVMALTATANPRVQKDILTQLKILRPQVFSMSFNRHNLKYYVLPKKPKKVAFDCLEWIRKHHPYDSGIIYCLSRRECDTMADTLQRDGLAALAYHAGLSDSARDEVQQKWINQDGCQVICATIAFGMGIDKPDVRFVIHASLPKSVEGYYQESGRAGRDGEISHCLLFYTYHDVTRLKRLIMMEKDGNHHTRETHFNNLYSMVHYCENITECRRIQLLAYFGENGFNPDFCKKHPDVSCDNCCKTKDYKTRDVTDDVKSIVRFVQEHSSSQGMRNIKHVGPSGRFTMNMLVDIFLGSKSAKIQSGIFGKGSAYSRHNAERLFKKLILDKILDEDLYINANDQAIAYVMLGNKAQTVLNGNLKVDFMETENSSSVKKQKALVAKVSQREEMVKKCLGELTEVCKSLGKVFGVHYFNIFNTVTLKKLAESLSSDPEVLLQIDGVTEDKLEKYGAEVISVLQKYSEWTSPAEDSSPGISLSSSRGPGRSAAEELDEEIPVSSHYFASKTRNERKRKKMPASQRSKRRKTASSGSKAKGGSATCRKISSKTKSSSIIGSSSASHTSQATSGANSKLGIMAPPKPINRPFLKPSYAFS

BLM [2] = target: T2, BLM (Homo sapiens, UniProt P54132)
T2 construct: recombinant, pET28a-sumo in E. coli BL21(DE3); amine-coupled to CM5 chip
T2 sequence (P54132 whole entry): as the sequence (P54132 whole entry K38R) above, with R38K counted along it

BLM [3] = target: T3, BLM (Homo sapiens, UniProt P54132, K31R)
T3 construct: recombinant, pET28a-sumo in E. coli BL21(DE3); amine-coupled to CM5 chip
T3 sequence (P54132 whole entry K31R): as the sequence (P54132 whole entry K38R) above, with K31R, R38K counted along it

- Kd (BLM [1]): 911 nM
- Kd (BLM [2]): 251 nM
- Kd (BLM [3]): 776 nM
Compound: CCc1c2c(nc3ccc(OC(=O)N4CCC(N5CCCCC5)CC4)cc13)-c1cc3c(c(=O)n1C2)COC(=O)[C@]3(O)CC [irinotecan]
